Here are results for 14 compounds from US20240239781A1, “1H-PYRAZOLE DERIVATIVES AS SIGMA LIGANDS” (ACONDICIONAMIENTO TARRASENSE, priority 2021, published 2024).

For test [1], the system named is mechanical hypersensitivity. The settings on record: SNI mice model of neuropathic pain; cited from earlier work.
The next test concerns the target sigma-2 (σ2) site (Homo sapiens, UniProt Q5BJF2). The settings on record: background statement; cited from earlier work.
Another test concerns the target T1, human σ1 receptor (Homo sapiens, UniProt Q99720).
T1 construct: expressed in transfected cells; host or cells: HEK-293
The test is described as follows: Human σ1 receptor radioligand assay ([3H](+)-pentazocine, transfected HEK-293 membranes). Particulars: class scale, read-out: Binding σ-1 Ki. The procedure, abridged:
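Compounds were tested at a single 1 or 10 μM concentration (% inhibition) or at five concentrations to give Ki. They competed with 5 nM [3H](+)-pentazocine for transfected HEK-293 membranes (7 μg) in 50 mM Tris-HCl pH 8 at 37° C for 120 minutes. Nonspecific binding was set with 10 μM haloperidol, and a filtration scintillation read-out was used.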

For the next test, the target named is T2, human σ2/TMEM97 receptor (Homo sapiens, UniProt Q5BJF2).
T2 construct: expressed in transfected cells; host or cells: HEK-293
T2 sequence (Q5BJF2 whole entry): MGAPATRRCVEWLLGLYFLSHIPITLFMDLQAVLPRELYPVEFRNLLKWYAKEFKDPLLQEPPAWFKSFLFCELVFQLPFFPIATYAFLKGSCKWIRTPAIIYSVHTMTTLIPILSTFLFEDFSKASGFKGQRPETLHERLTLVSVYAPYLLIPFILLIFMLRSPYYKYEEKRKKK
The test is described as follows: Binding assay to human σ2/TMEM97 receptor ([3H]-DTG, transfected HEK-293 membranes). The settings on record: class scale, read-out: Binding σ-2 Ki. The procedure, abridged:
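Competition against 10 nM [3H]-DTG (Tris-HCl 50 mM, pH 8.0, 25 °C, 120 min) using 15 μg transfected HEK-293 membrane protein, with 10 μM haloperidol defining NSB. Bound radioactivity counted after filtration; results as single-point % inhibition (1 or 10 μM) or five-point Ki.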

T1 sequence (Q99720 whole entry): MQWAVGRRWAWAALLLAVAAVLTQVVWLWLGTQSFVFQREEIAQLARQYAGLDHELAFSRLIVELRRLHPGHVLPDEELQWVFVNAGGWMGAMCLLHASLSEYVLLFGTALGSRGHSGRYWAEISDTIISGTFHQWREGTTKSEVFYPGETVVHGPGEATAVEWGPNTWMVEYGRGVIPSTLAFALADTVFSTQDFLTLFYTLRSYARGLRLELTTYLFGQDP
Sequence of sigma-2 (σ2) site (Q5BJF2 whole entry): as the sequence (Q5BJF2 whole entry) above

Consider `OCCCN1CCCC2CC1c1cc(-c3ccc(C(F)(F)F)cc3)ccc12` (centres unmarked) [UKH-1114], for which the “effect on mechanical hypersensitivity” value in test [1] was “relieved mechanical hypersensitivity”.

(+)-SKF-10047: the “affinity for the sigma-2 (σ2) site” value at sigma-2 (σ2) site was “micromolar affinity”.

What is called Ki is a measure of affinity in units of concentration, obtained from inhibition or displacement. Regarding `Cc1cc(-c2nn(C)c(Cl)c2C(=O)N2CCC3(CCN(CC(=O)N4CCCCC4)CC3)CC2)no1` [Example 112, 2-(9-(5-Chloro-1-methyl-3-(5-methylisoxazol-3-yl)-1H-pyrazole-4-carbonyl)-3,9-diazaspiro[5.5]undecan-3-yl)-1-(piperidin-1-yl)ethanone], the Ki at human σ1 receptor was above 1000 nM; at human σ2/TMEM97 receptor, 100 to 500 nM.

For the compound `CCn1ccc(-c2nn(C)c(Cl)c2C(=O)N2CCC3(CCN(CCC(C)(C)C)CC3)CC2)n1` [Example 179, (5-Chloro-1′-ethyl-1-methyl-1H,1′H-[3,3′-bipyrazol]-4-yl)(9-(3,3-dimethylbutyl)-3,9-diazaspiro[5.5]undecan-3-yl)methanone], the Ki at human σ1 receptor was above 1000 nM; at human σ2/TMEM97 receptor, below 100 nM.

Regarding `Cc1cc(-c2nn(C)c(Cl)c2CN2CCCCC(NCCc3ccccc3)C2)no1` (centres unmarked) [Example 3, 1-((5-Chloro-1-methyl-3-(5-methylisoxazol-3-yl)-1H-pyrazol-4-yl)methyl)-N-phenethylazepan-3-amine], the Ki on human σ1 receptor was 500 to 1000 nM; at human σ2/TMEM97 receptor, above 1000 nM.

For the compound `Cc1cc(-c2nn(C)c(Cl)c2C(=O)N2CCC3(CCN(CCC(C)C)CC3)CC2)no1` [Example 90, (5-Chloro-1-methyl-3-(5-methylisoxazol-3-yl)-1H-pyrazol-4-yl)(9-isopentyl-3,9-diazaspiro[5.5]undecan-3-yl)methanone], the figures for the Ki on human σ1 receptor and at human σ2/TMEM97 receptor were 500 to 1000 nM and 100 to 500 nM, respectively.

For `Cc1cc(-c2nn(C)c(Cl)c2C(=O)NC2CCC3(CC2)CCN(CCC(C)(C)C)CC3)no1` [Example 107, 5-Chloro-N-(3-(3,3-dimethylbutyl)-3-azaspiro[5.5]undecan-9-yl)-1-methyl-3-(5-methylisoxazol-3-yl)-1H-pyrazole-4-carboxamide], the results for the Ki at human σ1 receptor and at human σ2/TMEM97 receptor were 100 to 500 nM and below 100 nM, respectively.

As to `Cc1cc(-c2nn(C)c(Cl)c2CN2CCC[C@@H](NCCC(C)C)C2)no1` [Example 5, (R)-1-((5-Chloro-1-methyl-3-(5-methylisoxazol-3-yl)-1H-pyrazol-4-yl)methyl)-N-isopentylpiperidin-3-amine], the Ki was 500 to 1000 nM at human σ1 receptor and 100 to 500 nM on human σ2/TMEM97 receptor.

As for `CCn1nc(-c2cc(C)on2)c(CC(=O)N2CCCC3(CCN(CCC(C)(C)C)CC3)C2)c1Cl` [Example 217, 2-(5-Chloro-1-ethyl-3-(5-methylisoxazol-3-yl)-1H-pyrazol-4-yl)-1-(9-(3,3-dimethylbutyl)-2,9-diazaspiro[5.5]undecan-2-yl)ethan-1-one], the figures for the Ki on human σ1 receptor and at human σ2/TMEM97 receptor were 100 to 500 nM and below 100 nM, respectively.

As for `Cc1cc(-c2nn(C)c(Cl)c2CN2CCCCC(N(C)CCC(C)C)C2)no1` (centres unmarked) [Example 80, 1-((5-Chloro-1-methyl-3-(5-methylisoxazol-3-yl)-1H-pyrazol-4-yl)methyl)-N-isopentyl-N-methylazepan-3-amine], the Ki on human σ1 receptor fell in the range of 100 to 500 nM; at human σ2/TMEM97 receptor, 500 to 1000 nM.

With `Cc1cc(-c2nn(C)c(Cl)c2CC(=O)N2CCC3(CCN(CCC(C)C)CC3)CC2)no1` [Example 120], the values for the Ki at human σ1 receptor and on human σ2/TMEM97 receptor were 100 to 500 nM and below 100 nM, respectively.

`Cc1cc(-c2nn(C)c(Cl)c2C(=O)N2CCC3(CCN(CCC(C)(C)C)CC3)C2)no1` [Example 94, (5-Chloro-1-methyl-3-(5-methylisoxazol-3-yl)-1H-pyrazol-4-yl)(8-(3,3-dimethylbutyl)-2,8-diazaspiro[4.5]decan-2-yl)methanone]: the Ki at human σ1 receptor was above 1000 nM; on human σ2/TMEM97 receptor, 100 to 500 nM.

With `CCn1nc(-c2cc(C)on2)c(C(=O)NC2CCCN(CCC(C)(C)C)CC2)c1Cl` (centres unmarked) [Example 160, 5-Chloro-N-(1-(3,3-dimethylbutyl)azepan-4-yl)-1-ethyl-3-(5-methylisoxazol-3-yl)-1H-pyrazole-4-carboxamide], the Ki at human σ1 receptor and on human σ2/TMEM97 receptor was below 100 nM each time.

As for `Cn1nc(-c2ccon2)c(CN2CCCCC(NCCC(C)(C)C)C2)c1Cl` (centres unmarked) [Example 33, 1-((5-Chloro-3-(isoxazol-3-yl)-1-methyl-1H-pyrazol-4-yl)methyl)-N-(3,3-dimethylbutyl)azepan-3-amine], the Ki on human σ1 receptor and at human σ2/TMEM97 receptor was 100 to 500 nM throughout.
